Source: article PMC6832265 (Molecules, 2019)

Assays:
Tdp1 = biological target: T1, Tdp1 (Homo sapiens, UniProt Q9NUW8); assay: Real-time detection of Tdp1 activity (5'-FAM/3'-BHQ1 oligonucleotide biosensor); assay type: biochemical; settings: 1.5 nM Tdp1, 50 nM oligonucleotide substrate, 26 °C
T1 construct: made in house; host or cells: Escherichia coli
Source text: We first studied the inhibition potency of our compounds to Tdp1 by using a real-time oligonucleotide biosensor assay that we have previously developed. The assay was based on the ability of Tdp1 to remove the fluorescence quencher from the 3’-end of DNA. The substrate is a 16-mer single-stranded oligonucleotide containing both a 5’-FAM fluorophore and a 3’-BHQ1 quencher.
A fluorophore quencher-coupled DNA-biosensor for real-time measurement of Tdp1 cleavage activity was recently designed in our laboratory. The biosensor is a 16-mer single-stranded oligonucleotide containing both a 5’-FAM fluorophore donor and a quenching 3’-BHQ1 moiety.
Recombinant protein Tdp1 was expressed in EsCherichia coli (pET 16B plasmid containing Tdp1 cDNA provided by Dr. K.W. Caldecott, University of Sussex, United Kingdom) and isolated as described. The reaction mixture in a final volume 200 μL contained Tdp1 reaction buffer (50 mM Tris-HCl, 50 mM NaCl, 7 mM β-mercaptoethanol), 50 nM oligonucleotide substrate, and varied concentrations of potential inhibitor. Purified Tdp1 was added in a final concentration of 1.5 nM.
The reaction mixtures were incubated at a constant temperature of 26 °C in a POLARstar OPTIMA fluorimeter, BMG LABTECH, GmbH, to measure fluorescence intensity every minute (Ex485/Em520 nm). Tdp1 inhibition was calculated by comparing the rate of increase in fluorescence of the biosensor in the presence of the compound to that of DMSO (1.5%) control wells. The measurements were carried out in at least two independent experiments. IC50 values were determined using a six-point concentration response curve. The data were imported into the MARS Data Analysis 2.0 program (BMG LABTECH) and the slope during the linear phase (data from 0 to 7 min) was calculated.

[1] = biological target: T2, recombinant Tdp1 (residues 149–608) (Homo sapiens, UniProt Q9NUW8); assay: Intrinsic tryptophan fluorescence quenching binding assay; settings: 10 µM Tdp1, 20 mM Tris, 250 mM NaCl, pH 8; triplicate
T2 construct: recombinant Tdp1 (residues 149–608) was obtained from GenScript; host or cells: E. coli BL21(DE3)
Experimental: The binding of the synthesized compounds to recombinant Tdp1 was also tested (Table 1 and Table 2) by using an intrinsic tryptophan fluorescence quenching assay. […] As our compounds are aromatic in nature, there is a possibility that they may bind to both the active site as well as non-specifically to the DNA/peptide binding pockets. Nonetheless, our results confirmed that the compounds were indeed binders of Tdp1, thus complementing our inhibition data.
pET-28a(+) plasmid encoding recombinant Tdp1 (residues 149–608) was obtained from GenScript. E. coli BL21(DE3) was used for recombinant protein production. Protein production was induced with 1 mM IPTG at 28 °C with overnight incubation. Tdp1 was purified using affinity and size exclusion chromatography. Fluorescence was measured using a PerkinElmer EnSpire Multimode Reader. Tdp1 concentration was 10 μM with varying compound concentrations. The buffer was 20 mM Tris and 250 mM NaCl (pH 8). The excitation wavelength was 280 nm and intrinsic fluorescence was measured at 350 nm. Control experiments with Tdp1 or the compound on its own were also conducted. Background fluorescence arising from the compounds was subtracted from the final spectrum. The total volume per well was 30 μL. The dissociation constant (KD) was calculated using Equation (1), which takes non-specific binding into account. y = Bmaxx/(KD + x) + Nsx(1) where y denotes the changes in fluorescence intensity; x denotes the concentration of the compounds; Bmax denotes the maximum changes in fluorescence intensity; and Ns is a scaling factor for non-specific binding. Experiments were conducted in triplicate.

T1 sequence (Q9NUW8 whole entry): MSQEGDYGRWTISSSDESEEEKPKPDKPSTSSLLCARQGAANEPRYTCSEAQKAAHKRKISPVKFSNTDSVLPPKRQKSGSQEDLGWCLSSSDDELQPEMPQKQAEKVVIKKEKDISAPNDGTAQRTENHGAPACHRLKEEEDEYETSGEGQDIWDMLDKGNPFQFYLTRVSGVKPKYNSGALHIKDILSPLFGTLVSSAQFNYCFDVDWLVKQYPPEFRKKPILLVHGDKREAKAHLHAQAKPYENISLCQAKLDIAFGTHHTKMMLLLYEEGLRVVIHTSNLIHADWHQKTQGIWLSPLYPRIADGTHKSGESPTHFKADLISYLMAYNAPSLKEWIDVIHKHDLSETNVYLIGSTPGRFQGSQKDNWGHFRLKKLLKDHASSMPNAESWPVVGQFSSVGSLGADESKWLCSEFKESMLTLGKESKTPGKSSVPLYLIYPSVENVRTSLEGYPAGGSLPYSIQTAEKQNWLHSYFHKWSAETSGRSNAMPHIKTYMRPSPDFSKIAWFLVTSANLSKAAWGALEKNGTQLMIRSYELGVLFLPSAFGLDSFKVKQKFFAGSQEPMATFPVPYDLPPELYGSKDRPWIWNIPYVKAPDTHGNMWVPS
T2 sequence (Q9NUW8 149-608): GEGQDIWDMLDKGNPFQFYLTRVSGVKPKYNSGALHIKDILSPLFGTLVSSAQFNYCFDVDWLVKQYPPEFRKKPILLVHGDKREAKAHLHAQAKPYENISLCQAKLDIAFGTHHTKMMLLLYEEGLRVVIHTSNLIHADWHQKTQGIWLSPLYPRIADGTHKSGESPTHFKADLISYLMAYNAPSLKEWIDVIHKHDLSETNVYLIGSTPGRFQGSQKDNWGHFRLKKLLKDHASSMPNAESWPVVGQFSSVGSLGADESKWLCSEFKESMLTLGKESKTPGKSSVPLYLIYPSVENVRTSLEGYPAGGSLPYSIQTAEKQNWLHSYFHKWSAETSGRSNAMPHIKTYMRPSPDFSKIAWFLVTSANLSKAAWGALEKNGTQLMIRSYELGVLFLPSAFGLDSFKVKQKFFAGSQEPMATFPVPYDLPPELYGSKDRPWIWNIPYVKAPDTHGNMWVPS

Row | IC50 (Tdp1) [nM] | Kd [1] [nM] | Compound
1 | 120 ± 15 | 67000 ± 9000 | CC(=O)C1=C(O)C=C2Oc3c(-c4csc(N/N=C/c5ccco5)n4)c(O)c(C)c(O)c3[C@@]2(C)C1=O [(+)-16k, (2R)-4-Acetyl-5,11,13-trihydroxy-2,12-dimethyl-10-{2-[(E)-2-[(furan-2-yl)methylidene] hydrazin-1-yl]-1,3-thiazol-4-yl}-8-oxatricyclo[7.4.0.0^2,7]trideca-1(9),4,6,10,12-pentaen-3-one]
2 | 1690 ± 890 | 38000 ± 2000 | CC(=O)C1=C(O)C=C2Oc3c(-c4csc(N/N=C/c5cnc[nH]5)n4)c(O)c(C)c(O)c3[C@@]2(C)C1=O [(+)-16o, 5-[(1E)-(2-{4-[(1R)-12-Acetyl-3,5,11-trihydroxy-1,4-dimethyl-13-oxo-8-oxatricyclo[7.4.0.0^2,7]trideca-2(7),3,5,9,11-pentaen-6-yl]-1,3-thiazol-2-yl}hydrazin-1-ylidene)methyl]-1H-imidazol-1-ium bromide]
3 | 54 ± 8 | 156000 ± 8000 | COc1ccc(/C=N/Nc2nc(-c3c(O)c(C)c(O)c4c3OC3=CC(O)=C(C(C)=O)C(=O)[C@@]34C)cs2)cc1Cn1nc(C)c([N+](=O)[O-])c1C [(+)-17k, (2R)-4-Acetyl-10-{2-[(E)-2-({3-[(3,5-dimethyl-4-nitro-1H-pyrazol-1-yl)methyl]-4-methoxyphenyl}methylidene)hydrazin-1-yl]-1,3-thiazol-4-yl}-5,11,13-trihydroxy-2,12-dimethyl-8-oxatricyclo[7.4.0.0^2,7]trideca-1(9),4,6,10,12-pentaen-3-one]
4 | 37 ± 10 | 74000 ± 4000 | COc1ccc(/C=N/Nc2nc(-c3c(O)c(C)c(O)c4c3OC3=CC(O)=C(C(C)=O)C(=O)[C@]34C)cs2)cc1COc1ccccc1F [(−)-17c, (2S)-4-Acetyl-10-{2-[(E)-2-({3-[(2-fluorophenoxy)methyl]-4-methoxyphenyl}methylidene)hydrazin-1-yl]-1,3-thiazol-4-yl}-5,11,13-trihydroxy-2,12-dimethyl-8-oxatricyclo[7.4.0.0^2,7]trideca-1(9),4,6,10,12-pentaen-3-one]
5 | 64 ± 6 | 213000 ± 4000 | (2R)-4-Acetyl-10-{2-[(E)-2-({3-[(3,4-difluorophenoxy)methyl]-4-methoxyphenyl}methylidene)hydrazin-1-yl]-1,3-thiazol-4-yl}-5,11,13-trihydroxy-2,12-dimethyl-8-oxatricyclo[7.4.0.0^2,7]trideca-1(9),4,6,10,12-pentaen-3-one [(+)-17e]
6 | 154 ± 18 | 262000 ± 25000 | CC(=O)C1=C(O)C=C2Oc3c(-c4csc(N/N=C/c5cccnc5)n4)c(O)c(C)c(O)c3[C@]2(C)C1=O [(−)-16c, 3-[(1E)-(2-{4-[(1S)-12-Acetyl-3,5,11-trihydroxy-1,4-dimethyl-13-oxo-8-oxatricyclo[7.4.0.0^2,7]trideca-2(7),3,5,9,11-pentaen-6-yl]-1,3-thiazol-2-yl}hydrazin-1-ylidene)methyl]pyridin-1-ium bromide]
7 | 74 ± 1 | 188000 ± 22000 | COc1ccc(/C=N/Nc2nc(-c3c(O)c(C)c(O)c4c3OC3=CC(O)=C(C(C)=O)C(=O)[C@@]34C)cs2)cc1COc1ccc(Cl)c(C)c1 [(+)-17h, (2R)-4-Acetyl-10-{2-[(E)-2-({3-[(4-chloro-3-methylphenoxy)methyl]-4-methoxyphenyl}methylidene)hydrazin-1-yl]-1,3-thiazol-4-yl}-5,11,13-trihydroxy-2,12-dimethyl-8-oxatricyclo[7.4.0.0^2,7]trideca-1(9),4,6,10,12-pentaen-3-one]
8 | 160 ± 16 | 139000 ± 32000 | CC(=O)C1=C(O)C=C2Oc3c(-c4csc(N/N=C/c5ccncc5)n4)c(O)c(C)c(O)c3[C@@]2(C)C1=O [(+)-16a, 4-[(1E)-(2-{4-[(1R)-12-Acetyl-3,5,11-trihydroxy-1,4-dimethyl-13-oxo-8-oxatricyclo[7.4.0.0^2,7]trideca-2(7),3,5,9,11-pentaen-6-yl]-1,3-thiazol-2-yl}hydrazin-1-ylidene)methyl]pyridin-1-ium bromide]
9 | 178 ± 4 | 233000 ± 9000 | CC(=O)C1=C(O)C=C2Oc3c(-c4csc(N/N=C/c5ccoc5)n4)c(O)c(C)c(O)c3[C@]2(C)C1=O [(−)-16l, (2S)-4-Acetyl-5,11,13-trihydroxy-2,12-dimethyl-10-{2-[(E)-2-[(furan-3-yl)methylidene] hydrazin-1-yl]-1,3-thiazol-4-yl}-8-oxatricyclo[7.4.0.0^2,7]trideca-1(9),4,6,10,12-pentaen-3-one]
10 | 80 ± 7 | 161000 ± 22000 | COc1ccc(/C=N/Nc2nc(-c3c(O)c(C)c(O)c4c3OC3=CC(O)=C(C(C)=O)C(=O)[C@@]34C)cs2)cc1CN1CCN(c2ccc(F)cc2)CC1 [(+)-17i, (2R)-4-Acetyl-10-{2-[(E)-2-[(3-{[4-(4-fluorophenyl)piperazin-1-yl]methyl}-4-methoxyphenyl)methylidene]hydrazin-1-yl]-1,3-thiazol-4-yl}-5,11,13-trihydroxy-2,12-dimethyl-8-oxatricyclo[7.4.0.0^2,7]trideca-1(9),4,6,10,12-pentaen-3-one]
11 | 46 ± 24 | 250000 ± 24000 | CC(=O)C1=C(O)C=C2Oc3c(-c4csc(N/N=C/c5ccco5)n4)c(O)c(C)c(O)c3[C@]2(C)C1=O [(−)-16k, (2S)-4-Acetyl-5,11,13-trihydroxy-2,12-dimethyl-10-{2-[(E)-2-[(furan-2-yl)methylidene] hydrazin-1-yl]-1,3-thiazol-4-yl}-8-oxatricyclo[7.4.0.0^2,7]trideca-1(9),4,6,10,12-pentaen-3-one]
12 | 570 ± 109 | 51000 ± 4000 | CC(=O)C1=C(O)C=C2Oc3c(-c4csc(N/N=C/c5cnc[nH]5)n4)c(O)c(C)c(O)c3[C@]2(C)C1=O [(−)-16o, 5-[(1E)-(2-{4-[(1S)-12-Acetyl-3,5,11-trihydroxy-1,4-dimethyl-13-oxo-8-oxatricyclo[7.4.0.0^2,7]trideca-2(7),3,5,9,11-pentaen-6-yl]-1,3-thiazol-2-yl}hydrazin-1-ylidene)methyl]-1H-imidazol-1-ium bromide]
13 | 81 ± 20 | 58000 ± 4000 | (2S)-4-Acetyl-5,11,13-trihydroxy-2,12-dimethyl-10-{2-[(E)-2-[(1H-3-methyl-indole-3-yl) methylidene]hydrazin-1-yl]-1,3-thiazol-4-yl}-8-oxatricyclo[7.4.0.0^2,7]trideca-1(9),4,6,10,12-pentaen-3-one [(−)-16q]
14 | 94 ± 20 |  | COc1ccc(/C=N/Nc2nc(-c3c(O)c(C)c(O)c4c3OC3=CC(O)=C(C(C)=O)C(=O)[C@]34C)cs2)cc1CSc1cc(C)ccc1C(C)(C)C [(−)-17g, (2S)-4-Acetyl-10-{2-[(E)-2-[(3-{[(2-tert-butyl-5-methylphenyl)sulfanyl]methyl}-4-methoxyphenyl)methylidene]hydrazin-1-yl]-1,3-thiazol-4-yl}-5,11,13-trihydroxy-2,12-dimethyl-8-oxatricyclo[7.4.0.0^2,7]trideca-1(9),4,6,10,12-pentaen-3-one]
15 | 121 ± 25 |  | CC(=O)C1=C(O)C=C2Oc3c(-c4csc(N/N=C/c5sccc5C)n4)c(O)c(C)c(O)c3[C@]2(C)C1=O [(−)-16i, (2S)-4-Acetyl-5,11,13-trihydroxy-2,12-dimethyl-10-{2-[(E)-2-[(3-methylthiophen-2-yl)methylidene]hydrazin-1-yl]-1,3-thiazol-4-yl}-8-oxatricyclo[7.4.0.0^2,7]trideca-1(9),4,6,10,12-pentaen-3-one]
16 | 59 ± 5 |  | COc1ccc(/C=N/Nc2nc(-c3c(O)c(C)c(O)c4c3OC3=CC(O)=C(C(C)=O)C(=O)[C@]34C)cs2)cc1CN1CCN(c2ccc(F)cc2)CC1 [(−)-17i, (2S)-4-Acetyl-10-{2-[(E)-2-[(3-{[4-(4-fluorophenyl)piperazin-1-yl]methyl}-4-methoxyphenyl)methylidene]hydrazin-1-yl]-1,3-thiazol-4-yl}-5,11,13-trihydroxy-2,12-dimethyl-8-oxatricyclo[7.4.0.0^2,7]trideca-1(9),4,6,10,12-pentaen-3-one]
